Broadly, the inhibition in vivo is the relative decrease from the control value, in per cent. Usually Ki stands for a measure of affinity in units of concentration, obtained from inhibition or displacement. Low readings indicate higher affinity, high ones lower affinity.

Assay [1] deals with Rattus norvegicus. Description: Percent inhibition of serum creatinine by the compound given as ratio of Cr value in treated to vehicle treated ones after intraperitoneal administration of 10 mg/kg of compound to rats(vehicle 4.38+/-0.17). It is filed as functional. The settings on record: ip.
Assay [2] has as its system Rattus norvegicus. The assay is described as follows: Percent inhibition of Urea nitrogen by the compound given as ratio of UN value in treated to vehicle treated ones after intraperitoneal administration of 10 mg/kg of compound to rats(vehicle 164.3+/-4.9). It is filed as functional. The conditions noted are these: ip.
Assay [3] has as its system Rattus norvegicus. Description: Ratio of sodium ion/potassium ion concentration in treated rats to that in control rats, at a peroral dose of 25 mg/Kg. It is filed as functional.
A further assay deals with Adenosine A2 receptor (Rattus norvegicus, UniProt P29276+P30543).
The subject of assay [4] is Rattus norvegicus. The assay is described as follows: Ratio of urinary excretion value (Na+ concentration) in treated rats to that in control rats, at a peroral dose of 25 mg/Kg. It is filed as functional, Urine.
Assay [5] deals with Rattus norvegicus. The assay is described as follows: Urea nitrogen concentration measured after intraperitoneal administration of 10 mg/kg of compound to rats(vehicle 164.3+/-4.9). It is filed as functional.
Assay [6] deals with Rattus norvegicus. The assay is described as follows: Effect on urinary excretion potassium and sodium after oral administration of 25 mg/kg to rats(potassium and sodium excretion in control rat is 0.160+/-0.006). The format is functional, Urine.
In assay [7] the test system is Rattus norvegicus. The assay is described as follows: Serum creatinine concentration measured after intraperitoneal administration of 10 mg/kg of compound to rats(vehicle 4.38+/-0.17). It is filed as functional.
For assay [8], the system named is Rattus norvegicus. The assay is described as follows: Ratio of urinary excretion value (urinary volume) in treated rats to that in control rats, at a peroral dose of 25 mg/Kg. The format is functional, Urine.
Assay [9] concerns Rattus norvegicus. Description: Oral diuretic activity was measured after oral administration of 25 mg/kg to rats(control volume is 0.76+/-0.01). It is filed as functional, Urine.
Assay [10] concerns Rattus norvegicus. The assay is described as follows: Urea nitrogen concentration measured after intraperitoneal administration of 10 mg/kg of compound to rats(vehicle 138.4+/-9.8). It is filed as functional.
The next assay concerns the target T1, Adenosine receptor A1 (Cavia porcellus, UniProt P47745).
T1 sequence (P47745 whole entry): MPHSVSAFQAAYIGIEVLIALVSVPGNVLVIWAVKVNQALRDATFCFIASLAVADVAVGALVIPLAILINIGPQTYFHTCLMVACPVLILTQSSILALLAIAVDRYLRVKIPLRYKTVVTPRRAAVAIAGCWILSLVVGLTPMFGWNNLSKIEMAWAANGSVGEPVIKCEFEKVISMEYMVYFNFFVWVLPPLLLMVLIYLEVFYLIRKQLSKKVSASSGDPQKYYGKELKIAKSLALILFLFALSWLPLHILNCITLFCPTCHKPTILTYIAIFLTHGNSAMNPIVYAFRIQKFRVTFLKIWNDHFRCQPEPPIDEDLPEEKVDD

Assay [11] relates to Rattus norvegicus. Description: Percent inhibition of Urea nitrogen by the compound given as ratio of UN value in treated to vehicle treated ones after intraperitoneal administration of 1 mg/kg of compound to rats(vehicle 107.7+/-15.2). It is filed as functional. The conditions noted are these: ip.
The subject of assay [12] is Rattus norvegicus. The assay is described as follows: Effect on urinary excretion potassium and sodium after oral administration of 25 mg/kg to rats(potassium and sodium excretion in control rat is 0.134+/-0.017). It is filed as functional, Urine.
For assay [13], the system named is Rattus norvegicus. The assay is described as follows: Percent inhibition of serum creatinine by the compound given as ratio of Cr value in treated to vehicle treated ones after intraperitoneal administration of 10 mg/kg of compound to rats(vehicle 2.89+/-0.18). It is filed as functional. The settings on record: ip.
The subject of assay [14] is Rattus norvegicus. Description: Ratio of urinary excretion value (urinary volume) in treated rats to that in control rats, at a peroral dose of 6.25 mg/Kg. The format is functional, Urine.
The subject of assay [15] is Rattus norvegicus. Description: Percent inhibition of serum creatinine by the compound given as ratio of Cr value in treated to vehicle treated ones after intraperitoneal administration of 1 mg/kg of compound to rats(vehicle 2.89+/-0.42). It is filed as functional. The conditions noted are these: ip.
The test system of assay [16] is Rattus norvegicus. Description: Urea nitrogen concentration measured after intraperitoneal administration of 1 mg/kg of compound to rats(vehicle 107.7+/-15.2). The format is functional.
The subject of assay [17] is Rattus norvegicus. Description: Serum creatinine concentration measured after intraperitoneal administration of 10 mg/kg of compound to rats(vehicle 2.89+/-0.18). It is filed as functional.
In assay [18] the test system is Rattus norvegicus. The assay is described as follows: Percent inhibition of Urea nitrogen by the compound given as ratio of UN value in treated to vehicle treated ones after intraperitoneal administration of 10 mg/kg of compound to rats(vehicle 138.4+/-9.8). The conditions noted are these: ip. It is filed as functional.
For assay [19], the system named is Rattus norvegicus. The assay is described as follows: Serum creatinine concentration measured after intraperitoneal administration of 1 mg/kg of compound to rats(vehicle 2.89+/-0.42). The format is functional.
The subject of assay [20] is Rattus norvegicus. The assay is described as follows: Oral diuretic activity was measured after oral administration of 25 mg/kg to rats(control volume is 0.87+/-0.04). It is filed as functional, Urine.
Assay [21] relates to Rattus norvegicus. The assay is described as follows: Ratio of urinary excretion value (Na+ concentration) in treated rats to that in control rats, at a peroral dose of 6.25 mg/Kg. It is filed as functional, Urine.

Description for Adenosine receptor A1: Binding affinity against adenosine A1 receptor in guinea pig forebrain membranes using N6-[3H]cyclohexyladenosine as radioligand

Consider `CCCn1c(=O)c2c(nc(C(C3CC3)C3CC3)n2CCC)n(CCC)c1=O`, for which the inhibition in vivo at 10 mg/kg in the assay with Rattus norvegicus [1] was 7%; in the assay on Rattus norvegicus [2], 3%. For the same compound, the “Na+/K+” value with Rattus norvegicus [3] was 0.92. In addition, the Ki at Adenosine A2 receptor came to 6300 nM. In addition, the T/C in the assay on Rattus norvegicus [4] was 1.18; in the assay on Rattus norvegicus [8] it was 1.47. Further, the UN in the assay with Rattus norvegicus [5] is 159.2 mg/dL. In the assay on Rattus norvegicus [6], this compound yielded a Na of 0.188 m equiv 6hr-1 100g-1. This compound displayed a Cr in the assay with Rattus norvegicus [7] of 4.09 mg/dL. In the assay on Rattus norvegicus [9], this compound showed a Urine volume of 1.12 ml 6hr-1 100g-1.

On to `FC(F)(F)c1nnc2c(NC3CCCC3)nc3ccccc3n12`, for which the figures for the UN in the assay on Rattus norvegicus [10] and with Rattus norvegicus [16] were 58.9 mg/dL and 92 mg/dL, respectively. The Ki was 76 nM on Adenosine receptor A1 and 1300 nM on Adenosine A2 receptor. Moreover, the values for the inhibition in vivo at 1 mg/kg in the assay with Rattus norvegicus [11] and with Rattus norvegicus [15] were 15% and 10%, respectively. In the assay with Rattus norvegicus [12], this compound had a Na of 0.314 m equiv 6hr-1 100g-1. The “Na+/K+” value in the assay on Rattus norvegicus [3] was found to be 1.71. Besides, the results for the inhibition in vivo at 10 mg/kg in the assay on Rattus norvegicus [13] and in the assay on Rattus norvegicus [18] were 48% and 62%, respectively. Besides, the T/C in the assay on Rattus norvegicus [14] was 0.92; in the assay with Rattus norvegicus [4] it was 1.55; in the assay with Rattus norvegicus [8] it was 2.13; in the assay with Rattus norvegicus [21], 1.1. Further, the Cr in the assay with Rattus norvegicus [17] came out at 1.52 mg/dL; in the assay with Rattus norvegicus [19], 2.6 mg/dL. Moreover, in the assay with Rattus norvegicus [20], the Urine volume worked out at 1.86 ml 6hr-1 100g-1.
